Test results published in patent US10640527B2, “Mesitylene-cored amphiphiles and uses thereof” (Industry-University Cooperation Foundation Hanyang …, priority 2016, dated 2020).

Legend:
[1] = Critical micelle concentration by fluorophore encapsulation using diphenylhexatriene (DPH); assay type: physicochemical; details: aqueous solution
Method: A method of measuring a CMC is not particularly limited, and those methods widely known in the related field may be used. For example, a CMC may be measured by a fluorophore encapsulation method using diphenylhexatriene (DPH).
(§1) Specifically, a CMC was measured by a fluorophorescent encapsulation method using diphenylhexatriene (DPH) and an Rh of a micelle formed by each formulation (1.0 wt %) was measured using a dynamic light scattering (DLS) experiment.

[2] = Hydrodynamic radius / size distribution of micelles by dynamic light scattering (DLS); assay type: physicochemical; details: 1.0 wt % amphiphile
Method: A method of measuring a radius of the micelle is not particularly limited, and those methods widely known in the related field may be used, for example, a dynamic light scattering (DLS) experiment may be used for measurement.
as §1

[3] = target: T1, uric acid-xanthine/H+ symporter (UapA) (Emericella nidulans, UniProt Q07307, G411V); test: UapA structural (thermal) stability, CPM assay; assay type: biochemical, Aspergillus nidulans; details: for effect in maintaining folded UapA, ranking among MGAs: CMC+0.2 wt %, 40° C., 120 minutes
T1 construct: GFP; made in house; host or cells: Saccharomyces cerevisiae FGY217
T1 sequence (Q07307 12-574 G411V): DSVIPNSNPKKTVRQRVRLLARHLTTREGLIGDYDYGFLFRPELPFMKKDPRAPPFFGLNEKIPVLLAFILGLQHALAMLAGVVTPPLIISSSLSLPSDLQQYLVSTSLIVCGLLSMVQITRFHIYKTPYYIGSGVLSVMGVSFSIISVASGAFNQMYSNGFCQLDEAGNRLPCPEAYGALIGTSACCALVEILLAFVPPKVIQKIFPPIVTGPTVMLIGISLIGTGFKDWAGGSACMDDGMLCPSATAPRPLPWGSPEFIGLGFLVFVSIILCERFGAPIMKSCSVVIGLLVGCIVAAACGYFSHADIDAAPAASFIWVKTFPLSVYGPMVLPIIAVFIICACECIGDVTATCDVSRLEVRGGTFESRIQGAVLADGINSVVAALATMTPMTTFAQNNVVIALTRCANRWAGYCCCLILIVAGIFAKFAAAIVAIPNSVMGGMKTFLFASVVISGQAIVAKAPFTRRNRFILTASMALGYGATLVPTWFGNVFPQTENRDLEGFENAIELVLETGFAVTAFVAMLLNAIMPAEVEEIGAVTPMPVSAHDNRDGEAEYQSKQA
Method: An experiment for measuring the structural stability of uric acid-xanthine/H^+ symporter (UapA) solubilized in MGAs in an aqueous solution was performed. The structural stability of UapA was measured using a CPM assay, and was measured at MGAs and DDM concentrations of (a) CMC+0.04 wt %, or (b) CMC+0.2 wt %.
Specifically, a UapA protein is a uric acid-xanthine/H^+ symporter in Aspergillus nidulans. Protein stability was measured by fluorescence spectroscopy using N-[4-(7-diethylamino-4-methyl-3-coumarinyl)phenyl]maleimide (CPM) which is a sulfhydryl-specific fluorophore. A free sulfhydryl group of a cysteine residue is in the interior of a protein, but becomes accessible to a solvent upon protein unfolding. CPM becomes fluorescent by a reaction with the free thiol, and thus provides as a protein unfolding sensor. In order to measure thermal stability, first, UapAG411V1-11 was expressed in the Saccharomyces cerevisiae FGY217 strain by fusion with GFP, and separated in a sample buffer (20 mM Tris (pH 7.5), 150 mM NaCl, 0.03% DDM and 1 mM xanthine) according to a method described in a research article (Mol. Membr. Biol. 2013, 30, 32-42) by J. Leung et al. A UapA protein was concentrated to about 10 mg/ml using a 100 kDa molecular weight cut-off filter (Millipore). The concentrated protein was diluted to a ratio of 1:150 with each buffer including DDM or MGA (MGA-C10, MGA-C11, MGA-C12, MGA-C13, MGA-C14 or MGA-C15) at a concentration of CMC+0.04 wt % or CMC+0.2 wt % in a Greiner 96-well plate. A CPM dye (Invitrogen) stored in DMSO (Sigma) was diluted with a dye buffer (20 mM Tris (pH 7.5), 150 mM NaCl, 0.03% DDM and 5 mM EDTA), and 3 μl of the diluted dye was added to each protein sample. The reaction mixture was incubated at 40° C. for 120 minutes. Fluorescence emission was monitored using a microplate spectrofluorometer, with an excitation wavelength at 387 nm and an emission wavelength at 463 nm. Relative maximum fluorescence was used to calculate a percentage of relative folded protein remaining after 120 minutes at 40° C. Relative unfolded proteins were plotted against time using GraphPad Prism.
Specifically, a UapA stabilization effect was evaluated by the same method as in Experimental Example 2 using MGA-C13, MGA-C14, MNG-3 or DDM at a concentration of (a) CMC+0.04 wt % or (b) CMC+0.2 wt %.

[4] = test system: leucine transporter (LeuT); test: LeuT long-term stability, [3H]-Leu binding by scintillation proximity assay (SPA); assay type: biochemical, Aquifex aeolicus
Method: An experiment for measuring the structural stability of LeuT proteins according to MGAs (MGA-C11, MGA-C12, MGA-C13, MGA-C14 and MGA-C15) was performed. Each amphiphile was used at a concentration of (a) CMC+0.04 wt % or (b) CMC+0.2 wt %, a ligand-binding activity of LeuT was measured by scintillation proximity assay (SPA) using [^3H]-Leucine. The measurement was performed at regular intervals at room temperature during 12 days of incubation.
Specifically, a thermophilic bacteria Aquifex aeolicus-derived wild type LeuT was purified using a previously described method (Nature, G. Deckert et al., 1998, 392, 353-358). To sum up, the LeuT was expressed in E. coli C41 (DE3) cultured in a lysogeny broth medium supplemented with 0.1 mg/ml ampicillin. Expression of proteins was induced by adding isopropyl β-D-thiogalactopyranoside to a final concentration of 0.1 mM.
A cell membrane was separated from a crushed cell (Constant Systems Homogenizers, Kennesaw, Ga.), and solubilized in 1% (w/v) n-dodecyl-β-D-maltopyranoside (DDM; Affymetrix, Santa Clara, Calif.). After solubilization, LeuT was fixed in a Ni^2+-NTA resin (Life Technologies, Denmark), and eluted in 20 mM Tris-HCl (pH 7.5), 199 mM KCl, 1 mM NaCl, 0.05% (w/v) DDM and 300 mM imidazole. Thereafter, purified LeuT (about 1.5 mg/ml) was diluted tenfold with a buffer supplemented with MGA (MGA-C11, MGA-C12, MGA-C13, MGA-C14 or MGA-C15) or DDM to the final concentration of CMC+0.04% (w/v) or CMC+0.2% (w/v) while excluding DDM and imidazole from the above-described buffers. Protein samples were stored at room temperature for 12 days, and protein activity was determined by measuring [^3H]-Leu binding by SPA at a specified time. SPA was carried out using 450 mM NaCl and buffers containing each MGA, and a SPA reaction was performed in the presence of 20 nM [^3H]-Leu and 1.25 mg/ml copper chelate (His-Tag) YSi beads (Perkin Elmer, Denmark). [^3H]-Leu binding was measured using a MicroBeta liquid scintillation counter (Perkin Elmer).

[5] = target: T2, melibiose permease (MelBSt) (Salmonella typhimurium, UniProt P30878); test: MelBSt extraction from membranes and thermal stability, SDS-PAGE and Western blotting; assay type: biochemical; details: 1.5 wt %, 90 minutes
T2 construct: made in house; host or cells: DW2 cells (ΔmelB and ΔlacZY), Salmonella typhimurium DW2
T2 sequence (P30878 whole entry): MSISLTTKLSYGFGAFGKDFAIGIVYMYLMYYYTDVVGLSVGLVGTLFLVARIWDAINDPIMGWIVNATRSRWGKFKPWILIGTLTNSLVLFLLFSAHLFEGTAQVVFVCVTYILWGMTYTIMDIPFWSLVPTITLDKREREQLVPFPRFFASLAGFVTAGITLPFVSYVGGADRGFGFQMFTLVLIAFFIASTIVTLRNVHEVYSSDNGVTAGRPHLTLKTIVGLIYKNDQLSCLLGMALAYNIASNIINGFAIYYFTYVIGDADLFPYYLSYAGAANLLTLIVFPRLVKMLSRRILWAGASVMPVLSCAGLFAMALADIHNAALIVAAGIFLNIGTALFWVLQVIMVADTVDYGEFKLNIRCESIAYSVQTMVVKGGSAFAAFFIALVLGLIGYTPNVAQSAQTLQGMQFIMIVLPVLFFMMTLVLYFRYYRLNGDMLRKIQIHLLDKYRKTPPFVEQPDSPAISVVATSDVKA
Method: An experiment for measuring the structural stability of Salmonella typhimurium melibiose permease (MelBSt) according to MGAs in an aqueous solution was performed. After MelBSt proteins were extracted from a membrane using MGAs or DDM, the amount and structure of extracted proteins were analyzed by SDS-PAGE and western blotting. The concentration of used amphiphiles was 1.5 wt %, and proteins were extracted at four different temperatures of 0, 45, 55 and 65° C. to evaluate both the protein extraction efficiency and stabilizing ability of a compound. A membrane sample which had not been treated with MGAs or DDM was used as a control group.
Specifically, MelBSt stability solubilized in DDM or MGAs was evaluated according to a method described in 2010 in a research article (P. S. Chae et al., Nat. Methods 2010, 7, 1003-1008.) by the inventors of the present invention. Proteins (MelBSt) were produced using plasmid pK95ΔAHB/WT MelBSt/CH10 encoding the wild-type MelB with a 6-His tag at the C-terminus and Salmonella typhimurium DW2 cells (ΔmelB and ΔlacZY). Cell growth and membrane preparation was performed according to a method described in a research article (Nat. Commun. 2014, 5, 3009) by A. S. Ethayathulla, et al. A protein assay was carried out using a Micro BCA kit (Thermo Scientific, Rockford, Ill.). In order to measure protein solubilization, a membrane sample (final protein concentration was 10 mg/mL) containing MelBSt was incubated with a solubilization buffer (20 mM sodium phosphate, pH 7.5, 200 mM NaCl, 10% glycerol and 20 mM melibiose) and 1.5% (w/v) DDM or MGA (MGA-C10, MGA-C11, MGA-C12, MGA-C13, MGA-C14 or MGA-C15) at four different temperatures of 0, 45, 55 and 65° C. for 90 minutes. After ultracentrifugation at 355,590 g in a Beckman Optima™ MAX Ultracentrifuge using a TLA-100 rotor for 45 min at 4° C., 20 μg of a protein was separated by SDS-16% PAGE and immunoblotted with a Penta-His-HRP antibody (Qiagen, Germantown, Md.). MelBSt was measured by an ImageQuant LAS 4000 Biomolecular Imager (GE Healthcare Life Sciences) using a SuperSignal West Pico chemiluminescent substrate.

In the case of `CCCCCCCCCCC(CO[C@@H]1OC(CO)[C@@H](O)C(O)C1O)(CO[C@@H]1OC(CO)[C@@H](O)C(O)C1O)Cc1cc(CC(CCCCCCCCCC)(CO[C@@H]2OC(CO)[C@@H](O)C(O)C2O)CO[C@@H]2OC(CO)[C@@H](O)C(O)C2O)cc(CC(CCCCCCCCCC)(CO[C@@H]2OC(CO)[C@@H](O)C(O)C2O)CO[C@@H]2OC(CO)[C@@H](O)C(O)C2O)c1` (stereo partly drawn) [MGA-C10], the “CMC” value [1] is reported as ~8 µM, the “CMC (wt %)” value [1] is reported as ~0.0014 wt % and the “Rh (nm), hydrodynamic radius of micelle” value [2] is reported as 2.9 ± 0.01 nm. For the same molecule, the “effect in maintaining folded UapA, ranking among MGAs” value (shortened to “effect in maintaining folded UapA”) [3] was “less effective than the above-described MGAs, but still higher than DDM”.
For `CCCCCCCCCCCC(CO[C@@H]1OC(CO)[C@@H](O)C(O)C1O)(CO[C@@H]1OC(CO)[C@@H](O)C(O)C1O)Cc1cc(CC(CCCCCCCCCCC)(CO[C@@H]2OC(CO)[C@@H](O)C(O)C2O)CO[C@@H]2OC(CO)[C@@H](O)C(O)C2O)cc(CC(CCCCCCCCCCC)(CO[C@@H]2OC(CO)[C@@H](O)C(O)C2O)CO[C@@H]2OC(CO)[C@@H](O)C(O)C2O)c1` (stereo partly drawn) [MGA-C11], the “CMC” value [1] was ~5 µM, the “CMC (wt %)” value [1] was ~0.009 wt % and the “Rh (nm), hydrodynamic radius of micelle” value [2] was 3.0 ± 0.04 nm. For the same molecule, the “effect in maintaining folded UapA” value [3] was “less effective than the above-described MGAs, but still higher than DDM”, the “preservation of long-term stability of LeuT, comparison with DDM and ranking” value ([4]; 12 days at room temperature, CMC+0.04 wt % or CMC+0.2 wt %) was “the most excellent MGA” and the “LeuT ligand-binding activity retained, % of initial activity” value ([4]; after 12 days of incubation at room temperature) was ~90%.
With `CCCCCCCCCCCCC(CO[C@@H]1OC(CO)[C@@H](O)C(O)C1O)(CO[C@@H]1OC(CO)[C@@H](O)C(O)C1O)Cc1cc(CC(CCCCCCCCCCCC)(CO[C@@H]2OC(CO)[C@@H](O)C(O)C2O)CO[C@@H]2OC(CO)[C@@H](O)C(O)C2O)cc(CC(CCCCCCCCCCCC)(CO[C@@H]2OC(CO)[C@@H](O)C(O)C2O)CO[C@@H]2OC(CO)[C@@H](O)C(O)C2O)c1` (stereo partly drawn) [MGA-C12] the “CMC” value [1] was ~3.5 µM, the “CMC (wt %)” value [1] was ~0.0006 wt % and the “Rh (nm), hydrodynamic radius of micelle” value [2] was 3.1 ± 0.03 nm. For the same molecule, the “effect in maintaining folded UapA” value [3] was “less effective than the above-described MGAs, but still higher than DDM”.
With `CCCCCCCCCCCCCCC(CO[C@@H]1OC(CO)[C@@H](O)C(O)C1O)(CO[C@@H]1OC(CO)[C@@H](O)C(O)C1O)Cc1cc(CC(CCCCCCCCCCCCCC)(CO[C@@H]2OC(CO)[C@@H](O)C(O)C2O)CO[C@@H]2OC(CO)[C@@H](O)C(O)C2O)cc(CC(CCCCCCCCCCCCCC)(CO[C@@H]2OC(CO)[C@@H](O)C(O)C2O)CO[C@@H]2OC(CO)[C@@H](O)C(O)C2O)c1` (stereo partly drawn) [MGA-C14] the “CMC” value [1] was ~2 µM, the “CMC (wt %)” value [1] was ~0.0004 wt % and the “Rh (nm), hydrodynamic radius of micelle” value [2] was 3.4 ± 0.04 nm. For the same molecule, the “UapA stabilization effect compared with MNG-3” value ([3]; CMC+0.04 wt % or CMC+0.2 wt %, FIG. 25) was “far greater UapA stabilization effect than MNG-3”, the “effect in maintaining folded UapA” value [3] was “had the highest effect” and the “MelBSt protein extraction efficiency compared with DDM” value ([5]; 45° C.) was “same level of protein extraction efficiency as DDM”. For the same molecule, the “MelBSt extraction ability compared with DDM” value ([5]; 55° C.) was “higher MelBSt extraction ability than DDM”.
